What is called stoichiometry N is a count of units in the complex or per binding partner.

The target of one test is T1, KinIJ (Streptomyces murayamaensis, UniProt A0A385LMJ2).
T1 construct: gene kinJ; heterodimer, His6 tag on one or both proteins, expressed aerobically in E. coli and purified anaerobically; KinI co-purified or added separately; with Ferredoxin KinI
Description: LC-MS detection of L-hydrazinosuccinate. To be noted: methyl or benzyl viologen, anaerobic. It counts as biochemical.

Another test deals with T2, KinJ (Streptomyces murayamaensis, UniProt A0A385LMJ2).
T2 construct: monomeric when expressed alone; contains heme b
Description: EPR spectroscopy. It counts as binding. To be noted: ferric enzyme; axial ligand of heme; no ferredoxin.

The target in test [1] is FzmP, co-expressed with KinI (not stated (Streptomyces sp. S-149 or Streptomyces sp. XY332 cloned)). The test can be described thus: SEC; anaerobic size exclusion chromatography of proteins expressed alone or co-expressed and purified.
The target of test [2] is T3, KinJ from Streptomyces murayamaensis ATCC 21414 (tag placement not stated for the experiment) (Streptomyces murayamaensis ATCC 21414, UniProt A0A385LMJ2).
T3 chain: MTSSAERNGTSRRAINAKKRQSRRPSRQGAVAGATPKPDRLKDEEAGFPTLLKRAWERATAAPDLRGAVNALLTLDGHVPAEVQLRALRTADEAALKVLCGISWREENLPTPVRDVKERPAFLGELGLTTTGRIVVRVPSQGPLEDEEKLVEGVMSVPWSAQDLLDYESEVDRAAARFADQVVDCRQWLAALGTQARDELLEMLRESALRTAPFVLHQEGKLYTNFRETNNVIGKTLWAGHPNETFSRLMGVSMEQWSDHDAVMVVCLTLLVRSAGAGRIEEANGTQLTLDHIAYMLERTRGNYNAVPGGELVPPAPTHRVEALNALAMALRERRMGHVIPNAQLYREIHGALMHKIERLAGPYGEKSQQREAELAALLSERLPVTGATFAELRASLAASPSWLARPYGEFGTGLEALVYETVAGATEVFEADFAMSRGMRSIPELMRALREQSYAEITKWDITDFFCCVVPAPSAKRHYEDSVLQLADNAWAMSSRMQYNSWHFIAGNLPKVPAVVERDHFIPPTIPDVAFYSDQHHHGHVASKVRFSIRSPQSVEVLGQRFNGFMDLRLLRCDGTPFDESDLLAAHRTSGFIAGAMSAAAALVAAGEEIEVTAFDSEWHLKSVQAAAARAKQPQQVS
Description: reciprocal His6 co-purification (pull-down) and anaerobic SEC of the co-expressed complex; co-expressed in E. coli and purified anaerobically as a complex.

As for `N[C@@H](CC(=O)O)C(=O)O` [L-aspartate], the “LC-MS detection of L-hydrazinosuccinate” value at KinIJ (NaNO2, sodium dithionite) was “indicating the formation of an N–N bond-containing product from L-Asp and NO2^–”. For `O=NO` [NO2^–], at KinJ, the EPR spectroscopy result is reported as “addition of NO2^– (a strong field ligand) was associated with the formation of a 6-coordinate rhombic”. For the same molecule, at KinIJ (L-aspartate, sodium dithionite, 15N-labelled nitrite also used), the “LC-MS detection of L-hydrazinosuccinate” value is “indicating the formation of an N–N bond-containing product from L-Asp and NO2^–”.

Consider FzmP, co-expressed with KinI (enzyme), for which, in test [1], the stoichiometry N came to 2.

B1: KinI (ferredoxin; tag placement not stated for the experiment) (protein)
chain: MPTNTSDDSLDETVEGSVSGRDKLIAERTRSETWKKPPRRIERAECITCDTCLRACPPEFNAIFDNGLDVVIIPELCSGCPKCVLECPVDCIYVDEDWTPTTDEMWKHIGLTAEGVS
In the case of B1, in test [2], the binding result was “binds”.

Values taken from doi:10.1101/2025.05.27.656397, “A new heme enzyme family forms hydrazine groups in diverse biosynthetic pathways” (bioRxiv, 2025).
